Laboratory results from ChEMBL document CHEMBL3632591, “Discovery and structural diversity of the hepatitis C virus NS3/4A serine protease inhibitor series leading to clinical candidate IDX320” (Bioorg Med Chem Lett, 2015).

Experiments:
[1] = Half life in Sprague-Dawley rat at 10 mg/kg, po administered as single dose; assay type: ADME, organism-based; settings: in vivo
[2] = Cytotoxicity against human HuH7 cells by colorimetric proliferation assay; assay type: cell-based, Huh-7
[3] = Cmax in Cynomolgus monkey at 2 mg/kg, po administered as single dose; assay type: ADME, organism-based, Macaca fascicularis; design: dose 2 mg/kg, route oral; settings: in vivo
[4] = Volume of distribution in CD-1 mouse at 2 mg/kg, iv administered as single dose measured after 24 hrs; assay type: ADME, organism-based; settings: in vivo
[5] = Cytotoxicity against rat hepatocytes; assay type: cell-based, Hepatocyte
[6] = Half life in CD-1 mouse at 2 mg/kg, iv administered as single dose measured after 24 hrs; assay type: ADME, organism-based; settings: in vivo
[7] = Cmax in CD-1 mouse at 2 mg/kg, po administered as single dose; assay type: ADME, organism-based; design: dose 2 mg/kg, route oral; settings: in vivo
Mus musculus [8] = assay: Toxicity in mouse assessed as effect on gastrointestinal motility at 250 mg/kg, po administered as single dose; assay type: organism-based; settings: in vivo
[9] = Half life in Cynomolgus monkey at 2 mg/kg, iv administered as single dose; assay type: ADME, organism-based, Macaca fascicularis; settings: in vivo
[10] = AUC (infinity) in Sprague-Dawley rat at 2 mg/kg, iv administered as single dose; assay type: ADME, organism-based; design: dose 2 mg/kg, route intravenous, time infinity; settings: in vivo
[11] = Clearance in Sprague-Dawley rat at 2 mg/kg, iv administered as single dose; assay type: ADME, organism-based; settings: in vivo
[12] = Tmax in Sprague-Dawley rat at 10 mg/kg, po administered as single dose; assay type: ADME, organism-based; settings: in vivo
[13] = Tmax in CD-1 mouse at 2 mg/kg, po administered as single dose; assay type: ADME, organism-based; settings: in vivo
[14] = Inhibition of HCV genotype 2a NS3/4A protease; design: species or system Hepatitis C virus subtype 2a
[15] = Ratio of drug level in Sprague-Dawley rat liver to plasma at 10 mg/kg, po measured at 24 hrs; assay type: ADME, organism-based; settings: liver and plasma
[16] = AUCt in Sprague-Dawley rat at 10 mg/kg, po administered as single dose; assay type: ADME, organism-based; settings: in vivo
[17] = Inhibition of HCV genotype 3a NS3/4A protease; design: species or system Hepatitis C virus subtype 3a
Rhesus monkey [18] = assay: Toxicity in monkey assessed as effect on cardiovascular system at 250 mg/kg, po administered as single dose; assay type: organism-based, Macaca mulatta; settings: in vivo
[19] = AUC (infinity) in Cynomolgus monkey at 2 mg/kg, po administered as single dose; assay type: ADME, organism-based, Macaca fascicularis; design: dose 2 mg/kg, route oral, time infinity; settings: in vivo
[20] = Plasma concentration in Cynomolgus monkey at 2 mg/kg, iv administered as single dose measured after 24 hrs; assay type: ADME, organism-based, Macaca fascicularis
[21] = AUC (0 to 24 hrs) in CD-1 mouse at 2 mg/kg, iv administered as single dose measured after 24 hrs; assay type: ADME, organism-based; design: time < 24 hr, dose 2 mg/kg, route intravenous; settings: in vivo
[22] = Plasma concentration in CD-1 mouse at 2 mg/kg, iv administered as single dose measured after 24 hrs; assay type: ADME, organism-based
[23] = Efflux ratio of permeability in human Caco2 cells; assay type: ADME, cell-based; settings: Caco-2
[24] = Cytotoxicity against mouse hepatocytes; assay type: cell-based, Hepatocyte
Cytochrome P450 1A2 = target: T1, Cytochrome P450 1A2 (Homo sapiens, UniProt P05177); assay: Inhibition of human CYP1A2; assay type: ADME
T1 sequence (P05177 whole entry): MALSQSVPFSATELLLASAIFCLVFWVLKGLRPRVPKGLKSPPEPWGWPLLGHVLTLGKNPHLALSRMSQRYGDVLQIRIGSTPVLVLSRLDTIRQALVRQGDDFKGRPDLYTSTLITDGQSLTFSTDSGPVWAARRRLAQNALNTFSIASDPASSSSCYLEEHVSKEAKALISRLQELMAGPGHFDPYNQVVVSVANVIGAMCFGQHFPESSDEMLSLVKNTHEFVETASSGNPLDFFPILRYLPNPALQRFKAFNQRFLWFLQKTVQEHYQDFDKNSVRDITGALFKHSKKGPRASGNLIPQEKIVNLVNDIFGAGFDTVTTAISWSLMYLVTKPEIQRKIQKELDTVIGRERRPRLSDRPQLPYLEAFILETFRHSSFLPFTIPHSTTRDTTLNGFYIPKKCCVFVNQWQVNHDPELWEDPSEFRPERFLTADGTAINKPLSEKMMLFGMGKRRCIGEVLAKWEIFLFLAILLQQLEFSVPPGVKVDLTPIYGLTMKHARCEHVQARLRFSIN

[25] = Oral bioavailability in CD-1 mouse at 2 mg/kg administered as single dose; assay type: ADME, organism-based; settings: in vivo
[26] = AUCt in Sprague-Dawley rat at 2 mg/kg, iv administered as single dose; assay type: ADME, organism-based; settings: in vivo
Cytochrome P450 2B6 = target: T2, Cytochrome P450 2B6 (Homo sapiens, UniProt P20813); assay: Inhibition of human CYP2B6; assay type: ADME
T2 sequence (P20813 whole entry): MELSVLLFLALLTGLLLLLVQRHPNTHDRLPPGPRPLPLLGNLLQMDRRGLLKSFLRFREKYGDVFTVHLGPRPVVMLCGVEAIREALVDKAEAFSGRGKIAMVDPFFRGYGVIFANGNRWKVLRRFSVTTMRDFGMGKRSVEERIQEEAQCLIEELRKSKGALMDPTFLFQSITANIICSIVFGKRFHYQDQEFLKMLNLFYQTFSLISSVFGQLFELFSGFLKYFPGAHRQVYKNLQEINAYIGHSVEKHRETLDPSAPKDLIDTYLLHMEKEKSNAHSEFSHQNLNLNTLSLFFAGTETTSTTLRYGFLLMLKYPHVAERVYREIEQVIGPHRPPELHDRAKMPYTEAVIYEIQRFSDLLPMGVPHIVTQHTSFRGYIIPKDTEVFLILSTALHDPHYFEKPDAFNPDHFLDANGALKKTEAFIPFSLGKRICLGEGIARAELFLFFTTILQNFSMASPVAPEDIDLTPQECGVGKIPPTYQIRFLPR

[27] = AUC (infinity) in Cynomolgus monkey at 2 mg/kg, iv administered as single dose; assay type: ADME, organism-based, Macaca fascicularis; design: dose 2 mg/kg, route intravenous, time infinity; settings: in vivo
[28] = Volume of distribution in Cynomolgus monkey at 2 mg/kg, iv administered as single dose; assay type: ADME, organism-based, Macaca fascicularis; settings: in vivo
[29] = Inhibition of cellular protease (unknown origin); settings: Homo sapiens
[30] = Inhibition of recombinant full length HCV genotype 1b NS3/4A protease by FRET assay; design: species or system Hepatitis C virus subtype 1b
Mus musculus [31] = assay: Toxicity in mouse assessed as effect on central nervous system at 250 mg/kg, po administered as single dose; assay type: organism-based; settings: in vivo
Cytochrome P450 2C9 = Cytochrome P450 2C9 (Homo sapiens, UniProt P11712); assay: Inhibition of human CYP2C9; assay type: ADME
Cytochrome P450 2C9, sequence (P11712 whole entry): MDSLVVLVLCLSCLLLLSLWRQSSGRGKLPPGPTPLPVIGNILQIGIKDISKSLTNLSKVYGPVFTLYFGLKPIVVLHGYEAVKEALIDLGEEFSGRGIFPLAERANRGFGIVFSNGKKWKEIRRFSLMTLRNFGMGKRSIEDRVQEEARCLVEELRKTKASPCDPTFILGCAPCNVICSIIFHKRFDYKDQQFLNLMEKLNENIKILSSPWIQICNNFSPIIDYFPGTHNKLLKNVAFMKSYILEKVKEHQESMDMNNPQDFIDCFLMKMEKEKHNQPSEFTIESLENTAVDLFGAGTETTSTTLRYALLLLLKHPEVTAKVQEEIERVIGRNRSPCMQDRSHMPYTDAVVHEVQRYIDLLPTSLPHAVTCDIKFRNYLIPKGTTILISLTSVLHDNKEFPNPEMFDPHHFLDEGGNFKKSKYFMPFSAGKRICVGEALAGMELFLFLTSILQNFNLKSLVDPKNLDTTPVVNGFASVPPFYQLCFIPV

[32] = Half life in Sprague-Dawley rat at 2 mg/kg, iv administered as single dose; assay type: ADME, organism-based; settings: in vivo
[33] = AUC (infinity) in Sprague-Dawley rat at 10 mg/kg, po administered as single dose; assay type: ADME, organism-based; design: dose 10 mg/kg, time infinity, route oral; settings: in vivo
Mus musculus [34] = assay: Toxicity in mouse assessed as effect on renal function at 250 mg/kg, po administered as single dose; assay type: organism-based; settings: in vivo
[35] = Plasma concentration in Cynomolgus monkey at 2 mg/kg, po administered as single dose measured after 24 hrs; assay type: ADME, organism-based, Macaca fascicularis
[36] = Cmax in Sprague-Dawley rat plasma at 10 mg/kg, po administered as single dose measured after 24 hrs; assay type: ADME, organism-based; design: dose 10 mg/kg, route oral
Rhesus monkey [37] = assay: Toxicity in monkey assessed as effect on respiratory system at 250 mg/kg, po administered as single dose; assay type: organism-based, Macaca mulatta; settings: in vivo
[38] = Tmax in Cynomolgus monkey at 2 mg/kg, po administered as single dose; assay type: ADME, organism-based, Macaca fascicularis; settings: in vivo
[39] = Clearance in CD-1 mouse at 2 mg/kg, iv administered as single dose measured after 24 hrs; assay type: ADME, organism-based; settings: in vivo

COc1ccc2c(O[C@H]3CCN4C(=O)N(C)CCCCC=C[C@@H]5C[C@@]5(C(=O)NS(=O)(=O)C5(C)CC5)NC(=O)[C@@H]4C3)cc(-c3nc(C(F)(F)F)cs3)nc2c1C
half-life [1]: 3.6 h | CC50 [2]: 52.8 µM | Cmax [3]: 1030 ng/mL | Vd [4]: 4.4 L/kg | CC50 [5]: > 10 µM | half-life [6]: 6.3 h | Cmax [7]: 174 ng/mL | Activity (Mus musculus [8]): Non-toxic | half-life [9]: 10.3 h | AUC(0-inf) [10]: 1770 ng·h/mL | clearance [11]: 18.8 mL/min/kg | Tmax [12]: 1 h | Tmax [13]: 2 h | IC50 [14]: 0.0008 µM | Kp at 24 h [15]: 61.7 | AUC(0-t) [16]: 3920 ng·h/mL | IC50 [17]: 0.023 µM | Activity (Rhesus monkey [18]): Non-toxic | AUC(0-inf) [19]: 8920 ng·h/mL | concentration at 24 h [20]: 66 ng/mL | AUC(0-t) at 24 h [21]: 4060 ng·h/mL | concentration at 24 h [22]: 7.9 ng/mL | efflux ratio [23]: 2.7 | CC50 [24]: > 10 µM | IC50 (Cytochrome P450 1A2): ≥ 10 µM | bioavailability [25]: 34.7% | AUC(0-t) [26]: 1750 ng·h/mL | IC50 (Cytochrome P450 2B6): ≥ 10 µM | AUC(0-inf) [27]: 9580 ng·h/mL | Vd [28]: 3.5 L/kg | IC50 [29]: > 10 µM | IC50 [30]: 0.0005 µM | Activity (Mus musculus [31]): Non-toxic | IC50 (Cytochrome P450 2C9): ≥ 10 µM | half-life [32]: 1.5 h | AUC(0-inf) [33]: 3970 ng·h/mL | Activity (Mus musculus [34]): Non-toxic | concentration at 24 h [35]: 81 ng/mL | Cmax [36]: 934 ng/mL | Activity (Rhesus monkey [37]): Non-toxic | Tmax [38]: 1 h | clearance [39]: 8 mL/min/kg
